Assay results published in article PMC13168289, “Potent acridone antimalarial against all three life stages of Plasmodium” (Nature Communications, 2026).
Values joined by “and” are separate entries in the source; they are usually repeats but may differ in a detail not shown here. Identical values can stand only once. Like-named read-outs stand apart in the source and are kept apart here.

Experiments:
[1] = system: P. cynomolgi hypnozoites and schizonts; test: in vitro liver-stage P. cynomolgi assay in primary rhesus hepatocytes; format: cell-based, Plasmodium cynomolgi
Procedure: The liver-stage P. cynomolgi assay was designed to identify anti-hypnozoite drugs utilizing a 384-well in vitro culture system[31],[37]. Briefly, cryopreserved primary simian hepatocytes (donor lots XGB, OQB, and QHO: BioIVT, Inc.) were seeded in collagen-coated 384-well plates and infected with P. cynomolgi bastianellii (B strain) sporozoites dissected from infected Anopheles dirus mosquitoes. Test compounds were solubilized in 100% DMSO and serially diluted 2-fold to generate up to a 12-point dose-response curve, maintaining a final DMSO concentration of 0.1% across all wells. Two distinct treatment modes were evaluated. For the prophylactic assay, to assess the prevention of infection, compound exposure began 1-hour post-infection with daily media changes on Days 1 and 2. For the radical cure assay, to assess activity against established liver forms, drugs were administered daily from Day 4 through Day 7 post-infection. […] For readout on Day 8, plates were fixed and stained via immunofluorescence to visualize parasite forms (hypnozoites and schizonts) and hepatocyte nuclei, and images were acquired using an Operetta CLS high-content imaging system (PerkinElmer). Host hepatocyte viability was measured in parallel to determine compound toxicity. Parasite forms were automatically quantified using Harmony 4.9 software, and percent inhibition and toxicity were calculated relative to in-plate DMSO vehicle controls. IC50 and CC50 (half-maximal cytotoxic concentrations) were determined by fitting dose-response data to a four-parameter logistic (variable slope) model using a custom Python script incorporating a grid search algorithm.

[2] = system: P. yoelii wild type, ATV^r and ELQ-300^r clones; test: 4-day suppression model with ATV- and ELQ-300-resistant clones; format: in vivo, P. yoelii in CF1 mice; settings: (95% CI)
From the text: Animals were housed at the VAPORHCS in Thoren Maxi-Miser microisolator cages (78 sq. in. floor space) with a maximum density of five females or four males per cage. Cages were maintained on a 12-h light/dark cycle and provided with autoclaved nesting materials (nestlets) for environmental enrichment. All mice had ad libitum access to food and water. Four- to five-week-old female and male outbred CF1 mice (Charles River Laboratories, Raleigh, NC, USA) were randomly assigned to treatment and control groups using a simple randomization procedure (e.g., computer-generated random numbers) to ensure balanced distribution of baseline body weights and starting parasitemia levels across all cohorts. Groups of four mice (n = 4, mean body weight of each group was ~30 g) were infected intravenously with 3.5 × 10^4 P. yoelii (Kenya strain, MRA-428) from a donor animal. Drug administration commenced the day after the animals were inoculated (Day 1). The test drug or the drug combination was dissolved in PEG-400 and administered by oral gavage once daily for 4 successive days in the 4-day suppression model, but only once on Day 1 in the single-dose cure model. Blood was collected via the tail vein with the aid of a syringe needle on Day 5 and then at weekly intervals through Day 28. Blood films were Giemsa-stained and examined microscopically to determine the level of parasitemia. All mice were observed daily to assess clinical signs. Animals with observable parasitemia following the experiments were euthanized; animals cleared of parasitemia from their bloodstream were observed daily with assessment of parasitemia performed weekly until Day 28, at which point, the animal(s) were scored as cured of the infection and then humanely euthanized. All treated mice with a negative smear on Day 28 were considered cured (100% protection).
(§1) Drug susceptibility assays against P. falciparum strains were performed using a SYBR Green based assay. D6 and Dd2 were obtained from MR4. Tm90-C2B was obtained from WRAIR. Dd2-D1^I22L and ELQ-300 were obtained from VAPORHCS. D10yDHODH was obtained as a courtesy from Dr. Akhil Vaidya at Drexel University. P. yoelii ATV^r and ELQ-300^r clones were obtained from VAPORHCS.

[3] = system: P. falciparum mutant T111 lines; test: drug susceptibility of T111-selected cyt b mutant lines; format: cell-based, Plasmodium falciparum
Procedure: DNA extractions were performed on clonal parasites using the QIAamp DNA extraction kit (QIAGEN Inc, Valencia, CA) or ZYMO Quick gDNA Miniprep kit (Zymo Research Corp, Irvine, CA). For sequencing of the open reading frame of pfcytb, PCR was performed with genomic DNA using forward and reverse flanking primers for cyt b primer 1: 5’-[…]-3’ and primer 2: 5’-[…]-3’. PCR products were subjected to enzymatic cleanup with ExoSAP-IT (Thermo Fisher Scientific) and sent for Sanger sequencing (Eurofins Genomics, Louisville, KY) with PCR primer 2 paired with an internal forward primer: 5’-[…]-3’ and an internal reverse primer: 5’-[…]-3’. Sequences were assembled using 4Peaks software (Nucleobytes, Amsterdam, Netherlands) and aligned with Clustal Omega (EMBL-EBI). For sequencing of the open reading frame of pfdhodh, PCR was performed with genomic DNA using forward primer: 5’-[…]-3’ and reverse primer: 5’-[…]-3’. PCR products were prepared for Sanger sequencing and analyzed as described above, except using two forward primers: 5’-[…]-3’ and 5’-[…]-3’ and with two reverse primers: 5’-[…]-3’ and 5’-[…]-3’.
as §1

[4] = system: P. falciparum D6, Dd2, Tm90-C2B, Dd2-D1^I22L, D10yDHODH; test: microbe, parasite or virus in culture; format: cell-based, Plasmodium falciparum
Procedure: as §1

[5] = system: P. falciparum NF54 gametocytes; test: sexual blood-stage gametocyte assay; format: cell-based, Plasmodium falciparum; settings: Days 5 to 7, read Day 14
Procedure: P. falciparum NF54 was used to generate gametocytes. The erythrocytic stage of the parasite was cultured following standard laboratory protocols. Gametocyte production was carried out as described by Miura et al[34]. […] Cultures were maintained in washed human O^+ red blood cells at a final hematocrit of 2%[76]. For gametocyte cultures, parasites were induced using serum-free human media. Gametocyte cultures were maintained in washed human O^+ red blood cells at a final hematocrit of 5%. […] All cultures were maintained at 37 °C in a Billups chamber under a gas mixture of 90% N2, 5% CO2, and 5% O2, with media changes daily. […] DMSO diluted in gametocyte media was used as the control. […] Gametocytemia was assessed on Day 14 post-induction using blood smears stained with the Hema 3^TM Manual Staining System (Fisher) and analyzed by light microscopy.

O=C1C(O)=C([C@H]2CC[C@H](c3ccc(Cl)cc3)CC2)C(=O)c2ccccc21 [ATV, atovaquone]
IC50 ([1]; Plasmodium cynomolgi, Hepatocyte, in Macaca mulatta, prophylactic mode, hypnozoite, read-out: inhibition IC50): > 1200 nM | IC50 ([1]; Plasmodium cynomolgi, Hepatocyte, in Macaca mulatta, prophylactic mode, schizont, read-out: inhibition IC50): 9.3 nM | IC50 ([1]; Plasmodium cynomolgi, Hepatocyte, in Macaca mulatta, radical cure mode, hypnozoite, read-out: inhibition IC50): 2460 nM | IC50 ([1]; Plasmodium cynomolgi, Hepatocyte, in Macaca mulatta, radical cure mode, schizont, read-out: inhibition IC50): 2250 nM | IC50 ([1]; Plasmodium cynomolgi, Hepatocyte, in Macaca mulatta, summary in response to reviewers, read-out: IC50 values against hypnozoites): > 2000 nM | ED50 ([2]; P. yoelii ATVrY268S): 15.3 (9.9–24) mg/kg/day | ED50 ([2]; P. yoelii ELQ-300rI22L): 0.068 (0.053–0.087) mg/kg/day | ED50 ([2]; P. yoelii wild type): 0.064 (0.049–0.085) mg/kg/day | IC50 ([3]; Plasmodium falciparum, DD2, read-out: inhibition IC50 vs P. falciparum, Dd2): 0.44 ± 0.052 nM | IC50 ([3]; Plasmodium falciparum, DD2, read-out: inhibition IC50 vs P. falciparum, Dd2-A^131S-140I-259L): 4.7 ± 0.44 nM | IC50 ([3]; Plasmodium falciparum, DD2, read-out: inhibition IC50 vs P. falciparum, Dd2-A^131S-140I-259L-264L): 15 ± 2 nM | IC50 ([3]; Plasmodium falciparum, DD2, read-out: inhibition IC50 vs P. falciparum, Dd2-B^87V-131S-140I-259L): 10 ± 1.4 nM | IC50 ([3]; Plasmodium falciparum, DD2, read-out: inhibition IC50 vs P. falciparum, Dd2-B^131S-140I-259L-264L): 11 ± 1.8 nM | IC50 ([3]; Plasmodium falciparum, DD2, read-out: inhibition IC50 vs P. falciparum, Dd2-C0^119L-131S-259L (pfdhodh mutation)): 15 ± 0.46 nM | IC50 ([3]; Plasmodium falciparum, DD2, read-out: inhibition IC50 vs P. falciparum, Dd2-C1^131S-140I-259L (pfdhodh mutation)): 25 ± 7.2 nM | IC50 ([3]; Plasmodium falciparum, DD2, read-out: inhibition IC50 vs P. falciparum, Dd2^131S): 0.34 ± 0.049 nM | IC50 ([3]; Plasmodium falciparum, DD2, read-out: inhibition IC50 vs P. falciparum, Dd2^131S-259L): 1.5 ± 0.17 nM | IC50 ([3]; Plasmodium falciparum, DD2, read-out: inhibition IC50 vs P. falciparum, Dd2^259L): 6.6 ± 1.9 nM | IC50 ([4]; Plasmodium falciparum, read-out: in vitro IC50 vs P. falciparum, D6): 0.073 ± 0.01 nM | IC50 ([4]; Plasmodium falciparum, read-out: in vitro IC50 vs P. falciparum, D10yDHODH): > 2500 nM | IC50 ([4]; Plasmodium falciparum, read-out: in vitro IC50 vs P. falciparum, Dd2): 0.13 ± 0.012 nM | IC50 ([4]; Plasmodium falciparum, read-out: in vitro IC50 vs P. falciparum, Dd2-D1^I22L (ELQ-300-resistant)): 0.007 ± 0.0025 nM | IC50 ([4]; Plasmodium falciparum, read-out: in vitro IC50 vs P. falciparum, Tm90-C2B (cyt b Y268S, ATV-resistant)): 8538 ± 65 nM

O=c1c2ccc(Oc3ccc(OC(F)(F)F)cc3)cc2[nH]c2cc(Cl)cc(F)c12 [T111]
IC50 ([1]; prophylactic mode, hypnozoite, read-out: inhibition IC50): 93 nM | IC50 ([1]; prophylactic mode, schizont, read-out: inhibition IC50): 18 nM | residual population of hypnozoites ([1]; radical cure mode, highest concentrations tested): 10-20% | IC50 ([1]; radical cure mode, hypnozoite, read-out: inhibition IC50): 500 nM | IC50 ([1]; radical cure mode, schizont, read-out: inhibition IC50): 280 nM | ED50 ([2]; P. yoelii ATVrY268S): 0.31 (0.29–0.34) mg/kg/day and 0.31 mg/kg/day | ED50 ([2]; P. yoelii ELQ-300rI22L): 0.25 (0.21–0.30) mg/kg/day and 0.25 mg/kg/day | ED50 ([2]; P. yoelii wild type): 0.24 (0.20–0.29) mg/kg/day and 0.24 mg/kg/day | IC50 ([3]; Dd2-A^131S-140I-259L-264L, read-out: inhibition IC50 vs P. falciparum): 98 ± 12 nM | IC50 ([3]; Dd2-A^131S-140I-259L, read-out: inhibition IC50 vs P. falciparum): 74 ± 5.1 nM | IC50 ([3]; Dd2-B^87V-131S-140I-259L, read-out: inhibition IC50 vs P. falciparum): 129 ± 6.3 nM | IC50 ([3]; Dd2-B^131S-140I-259L-264L, read-out: inhibition IC50 vs P. falciparum): 114 ± 13 nM | IC50 ([3]; Dd2-C0^119L-131S-259L (pfdhodh mutation), read-out: inhibition IC50 vs P. falciparum): 144 ± 12 nM | IC50 ([3]; Dd2-C1^131S-140I-259L (pfdhodh mutation), read-out: inhibition IC50 vs P. falciparum): 223 ± 36 nM | IC50 ([3]; Dd2, read-out: inhibition IC50 vs P. falciparum): 0.15 ± 0.023 nM | IC50 ([3]; Dd2^131S-259L, read-out: inhibition IC50 vs P. falciparum): 12 ± 2.5 nM | IC50 ([3]; Dd2^131S, read-out: inhibition IC50 vs P. falciparum): 0.78 ± 0.081 nM | IC50 ([3]; Dd2^259L, read-out: inhibition IC50 vs P. falciparum): 4.4 ± 0.71 nM | IC50 ([4]; D6, read-out: in vitro IC50 vs P. falciparum): 0.028 ± 0.00036 nM | IC50 ([4]; D10yDHODH, read-out: in vitro IC50 vs P. falciparum): > 2500 nM | IC50 ([4]; Dd2, read-out: in vitro IC50 vs P. falciparum): 0.042 ± 0.0042 nM | IC50 ([4]; Tm90-C2B (cyt b Y268S, ATV-resistant), read-out: in vitro IC50 vs P. falciparum): 4 ± 0.076 nM | inhibition of formation of stage V gametocytes ([5]; 1 µM): 75% | inhibition of formation of stage V gametocytes ([5]; 10 µM): 93%
